Measured values reported in patent publication US11040028B2, “Penicinotam derivative, preparation method and use thereof” (OCEAN UNIVERSITY OF CHINA, priority 2017, dated 2021).

tested on: BHK-21 cells; assay: Anti-fibrosis activity test: inhibition of BHK-21 cell proliferation (CCK-8); assay type: cell-based; settings: Mesocricetus auratus, BHK-21, 48 h, CCK-8, 48 hours after administration
Outline: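 Cells plated 2×10^4 cells/mL; 24 h attach; compound dilutions, triplicate, 48 h, 37° C/5% CO2; CCK-8 2 h; A450; IR = (1−Ai/Ao)×100%; IC50 by curve fit.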

Row | SMILES | IC50 [mM]
1 | O=C1c2c(nc3ccccc3c2OCc2c(Cl)cccc2Cl)-c2cccn21 [Compound 614b, 9-((2,6-dichlorobenzyl)oxy)-10H-pyrrolizino[1,2-b]quinolin-10-one] | 0.05 to 5
2 | O=C1c2c(nc3ccccc3c2OCc2cccc(F)c2)-c2cccn21 [Compound 595b, 9-((3-fluorobenzyl)oxy)-10H-pyrrolizino[1,2-b]quinolin-10-one] | 0.05 to 5
3 | COc1cccc2c(=O)c3c([nH]c12)-c1cccn1C3=O [Compound 446a, 5-Methoxy-9H-pyrrolizino[1,2-b]quinoline-9,10(4H)-dione] | 0.05 to 5
4 | O=C1c2c(nc3ccccc3c2OCc2ccccc2Cl)-c2cccn21 [Compound 600b, 9-((2-chlorobenzyl)oxy)-10H-pyrrolizino[1,2-b]quinolin-10-one] | 0.05 to 5
5 | O=C1c2c(nc3ccccc3c2OCc2c(F)c(F)c(F)c(F)c2F)-c2cccn21 [Compound 586b, 9-((perfluorophenyl)methoxy)-10H-pyrrolizino[1,2-b]quinolin-10-one] | 0.05 to 5

tested on: human lung fibroblasts HFL1; assay: Anti-fibrosis activity test: inhibition of proliferation of human lung fibroblasts HFL1 (CCK-8); assay type: cell-based; settings: Homo sapiens, HFL1, 48 h, human lung fibroblasts HFL1, CCK-8, 48 hours
Outline: (§1)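 Seed 2×10^4 cells/mL; adhere 24 h, 37° C/5% CO2. Compounds, serial concentrations, triplicate, 48 h. CCK-8 2 h, A450. IR=(1−Ai/Ao)×100% vs blank; IC50 fitted. Pirfenidone as positive control.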

Row | SMILES | IC50 [mM]
6 | O=C1c2c(nc3ccccc3c2OCc2c(Cl)cccc2Cl)-c2cccn21 [Compound 614b, 9-((2,6-dichlorobenzyl)oxy)-10H-pyrrolizino[1,2-b]quinolin-10-one] | 0.05 to 5
7 | O=C1c2c(nc3ccccc3c2OCc2cccc(F)c2)-c2cccn21 [Compound 595b, 9-((3-fluorobenzyl)oxy)-10H-pyrrolizino[1,2-b]quinolin-10-one] | 0.05 to 5
8 | COc1cccc2c(=O)c3c([nH]c12)-c1cccn1C3=O [Compound 446a, 5-Methoxy-9H-pyrrolizino[1,2-b]quinoline-9,10(4H)-dione] | 0.05 to 5
9 | O=C1c2c(nc3ccccc3c2OCc2ccccc2Cl)-c2cccn21 [Compound 600b, 9-((2-chlorobenzyl)oxy)-10H-pyrrolizino[1,2-b]quinolin-10-one] | 0.05 to 5
10 | O=C1c2c(nc3ccccc3c2OCc2c(F)c(F)c(F)c(F)c2F)-c2cccn21 [Compound 586b, 9-((perfluorophenyl)methoxy)-10H-pyrrolizino[1,2-b]quinolin-10-one] | 0.05 to 5

tested on: human hepatic stellate cells LX-2; assay: Anti-fibrosis activity test: inhibition of proliferation of human hepatic stellate cells LX-2 (CCK-8); assay type: cell-based; settings: Homo sapiens, 48 h, human hepatic stellate cells LX-2, CCK-8, 48 hours
Outline: as §1

Row | SMILES | IC50 [mM]
11 | O=C1c2c(nc3ccccc3c2OCc2c(Cl)cccc2Cl)-c2cccn21 [Compound 614b, 9-((2,6-dichlorobenzyl)oxy)-10H-pyrrolizino[1,2-b]quinolin-10-one] | 0.05 to 5
12 | O=C1c2c(nc3ccccc3c2OCc2cccc(F)c2)-c2cccn21 [Compound 595b, 9-((3-fluorobenzyl)oxy)-10H-pyrrolizino[1,2-b]quinolin-10-one] | 0.05 to 5
13 | COc1cccc2c(=O)c3c([nH]c12)-c1cccn1C3=O [Compound 446a, 5-Methoxy-9H-pyrrolizino[1,2-b]quinoline-9,10(4H)-dione] | 0.05 to 5
14 | O=C1c2c(nc3ccccc3c2OCc2ccccc2Cl)-c2cccn21 [Compound 600b, 9-((2-chlorobenzyl)oxy)-10H-pyrrolizino[1,2-b]quinolin-10-one] | 0.05 to 5
15 | O=C1c2c(nc3ccccc3c2OCc2c(F)c(F)c(F)c(F)c2F)-c2cccn21 [Compound 586b, 9-((perfluorophenyl)methoxy)-10H-pyrrolizino[1,2-b]quinolin-10-one] | 0.05 to 5

tested on: human fibrosarcoma cells HT-1080; assay: Anti-fibrosis activity test: inhibition of proliferation of human fibrosarcoma cells HT-1080 (CCK-8); assay type: cell-based; settings: Homo sapiens, HT-1080, 48 h, human fibrosarcoma cells HT-1080, CCK-8, 48 hours
Outline: as §1

Row | SMILES | IC50 [mM]
16 | O=C1c2c(nc3ccccc3c2OCc2c(Cl)cccc2Cl)-c2cccn21 [Compound 614b, 9-((2,6-dichlorobenzyl)oxy)-10H-pyrrolizino[1,2-b]quinolin-10-one] | 0.05 to 5
17 | O=C1c2c(nc3ccccc3c2OCc2cccc(F)c2)-c2cccn21 [Compound 595b, 9-((3-fluorobenzyl)oxy)-10H-pyrrolizino[1,2-b]quinolin-10-one] | 0.05 to 5
18 | COc1cccc2c(=O)c3c([nH]c12)-c1cccn1C3=O [Compound 446a, 5-Methoxy-9H-pyrrolizino[1,2-b]quinoline-9,10(4H)-dione] | 0.05 to 5
19 | O=C1c2c(nc3ccccc3c2OCc2ccccc2Cl)-c2cccn21 [Compound 600b, 9-((2-chlorobenzyl)oxy)-10H-pyrrolizino[1,2-b]quinolin-10-one] | 0.05 to 5
20 | O=C1c2c(nc3ccccc3c2OCc2c(F)c(F)c(F)c(F)c2F)-c2cccn21 [Compound 586b, 9-((perfluorophenyl)methoxy)-10H-pyrrolizino[1,2-b]quinolin-10-one] | 0.05 to 5

tested on: human dermal fibroblasts CCC-ESF-1; assay: Anti-fibrosis activity test: inhibition of proliferation of human dermal fibroblasts CCC-ESF-1 (CCK-8); assay type: cell-based; settings: Fibroblast; human dermal fibroblasts CCC-ESF-1, CCK-8, 48 hours
Outline: as §1

Row | SMILES | IC50 [mM]
21 | O=C1c2c(nc3ccccc3c2OCc2c(Cl)cccc2Cl)-c2cccn21 [Compound 614b, 9-((2,6-dichlorobenzyl)oxy)-10H-pyrrolizino[1,2-b]quinolin-10-one] | 0.05 to 5
22 | O=C1c2c(nc3ccccc3c2OCc2cccc(F)c2)-c2cccn21 [Compound 595b, 9-((3-fluorobenzyl)oxy)-10H-pyrrolizino[1,2-b]quinolin-10-one] | 0.05 to 5
23 | COc1cccc2c(=O)c3c([nH]c12)-c1cccn1C3=O [Compound 446a, 5-Methoxy-9H-pyrrolizino[1,2-b]quinoline-9,10(4H)-dione] | 0.05 to 5
24 | O=C1c2c(nc3ccccc3c2OCc2ccccc2Cl)-c2cccn21 [Compound 600b, 9-((2-chlorobenzyl)oxy)-10H-pyrrolizino[1,2-b]quinolin-10-one] | 0.05 to 5
25 | O=C1c2c(nc3ccccc3c2OCc2c(F)c(F)c(F)c(F)c2F)-c2cccn21 [Compound 586b, 9-((perfluorophenyl)methoxy)-10H-pyrrolizino[1,2-b]quinolin-10-one] | 0.05 to 5

tested on: human embryonic lung fibroblast IMR-90; assay: Anti-fibrosis activity test: inhibition of proliferation of human embryonic lung fibroblast IMR-90 (CCK-8); assay type: cell-based; settings: human embryonic lung fibroblast IMR-90, CCK-8, 48 hours
Outline: as §1

Row | SMILES | IC50 [mM]
26 | O=C1c2c(nc3ccccc3c2OCc2c(Cl)cccc2Cl)-c2cccn21 [Compound 614b, 9-((2,6-dichlorobenzyl)oxy)-10H-pyrrolizino[1,2-b]quinolin-10-one] | 0.05 to 5
27 | O=C1c2c(nc3ccccc3c2OCc2cccc(F)c2)-c2cccn21 [Compound 595b, 9-((3-fluorobenzyl)oxy)-10H-pyrrolizino[1,2-b]quinolin-10-one] | 0.05 to 5
28 | COc1cccc2c(=O)c3c([nH]c12)-c1cccn1C3=O [Compound 446a, 5-Methoxy-9H-pyrrolizino[1,2-b]quinoline-9,10(4H)-dione] | 0.05 to 5
29 | O=C1c2c(nc3ccccc3c2OCc2ccccc2Cl)-c2cccn21 [Compound 600b, 9-((2-chlorobenzyl)oxy)-10H-pyrrolizino[1,2-b]quinolin-10-one] | 0.05 to 5
30 | O=C1c2c(nc3ccccc3c2OCc2c(F)c(F)c(F)c(F)c2F)-c2cccn21 [Compound 586b, 9-((perfluorophenyl)methoxy)-10H-pyrrolizino[1,2-b]quinolin-10-one] | 0.05 to 5

tested on: cardiac fibroblast RAT-iCell-C002; assay: Anti-fibrosis activity test: inhibition of proliferation of cardiac fibroblast RAT-iCell-C002 (CCK-8); assay type: cell-based; settings: Cardiac fibroblast, 48 h, cardiac fibroblast RAT-iCell-C002, CCK-8, 48 hours
Outline: as §1

Row | SMILES | IC50 [mM]
31 | O=C1c2c(nc3ccccc3c2OCc2c(Cl)cccc2Cl)-c2cccn21 [Compound 614b, 9-((2,6-dichlorobenzyl)oxy)-10H-pyrrolizino[1,2-b]quinolin-10-one] | 0.05 to 5
32 | O=C1c2c(nc3ccccc3c2OCc2cccc(F)c2)-c2cccn21 [Compound 595b, 9-((3-fluorobenzyl)oxy)-10H-pyrrolizino[1,2-b]quinolin-10-one] | 0.05 to 5
33 | COc1cccc2c(=O)c3c([nH]c12)-c1cccn1C3=O [Compound 446a, 5-Methoxy-9H-pyrrolizino[1,2-b]quinoline-9,10(4H)-dione] | 0.05 to 5
34 | O=C1c2c(nc3ccccc3c2OCc2ccccc2Cl)-c2cccn21 [Compound 600b, 9-((2-chlorobenzyl)oxy)-10H-pyrrolizino[1,2-b]quinolin-10-one] | 0.05 to 5
35 | O=C1c2c(nc3ccccc3c2OCc2c(F)c(F)c(F)c(F)c2F)-c2cccn21 [Compound 586b, 9-((perfluorophenyl)methoxy)-10H-pyrrolizino[1,2-b]quinolin-10-one] | 0.05 to 5

tested on: NF-κB; assay: Immunological activity test: inhibition of NF-κB activity; assay type: cell-based; settings: initial concentration of 30 μM; a/b isomers given as first/second symbol; read-out: IC50 (μM), inhibitory activity against NF-κB
Outline: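 Parthenolide as positive control; starting test concentration 30 μM; inhibition of NF-κB activity analysed further to yield IC50.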

Row | SMILES | IC50 [µM]
36 | O=C1c2c(nc3ccccc3c2OCc2c(Cl)cccc2Cl)-c2cccn21 [Compound 614b, 9-((2,6-dichlorobenzyl)oxy)-10H-pyrrolizino[1,2-b]quinolin-10-one] | 1 to 10
37 | O=C1c2c(nc3ccccc3c2OCc2cccc(F)c2)-c2cccn21 [Compound 595b, 9-((3-fluorobenzyl)oxy)-10H-pyrrolizino[1,2-b]quinolin-10-one] | 1 to 10
38 | COc1cccc2c(=O)c3c([nH]c12)-c1cccn1C3=O [Compound 446a, 5-Methoxy-9H-pyrrolizino[1,2-b]quinoline-9,10(4H)-dione] | 0.1 to 1
39 | O=C1c2c(nc3ccccc3c2OCc2ccccc2Cl)-c2cccn21 [Compound 600b, 9-((2-chlorobenzyl)oxy)-10H-pyrrolizino[1,2-b]quinolin-10-one] | 1 to 10
40 | O=C1c2c(nc3ccccc3c2OCc2c(F)c(F)c(F)c(F)c2F)-c2cccn21 [Compound 586b, 9-((perfluorophenyl)methoxy)-10H-pyrrolizino[1,2-b]quinolin-10-one] | 1 to 10

tested on: mouse macrophages (RAW264.7); assay: Lipopolysaccharide-induced NO secretion in macrophages (Griess); assay type: cell-based; settings: Mus musculus, RAW264.7, 24 h, RAW264.7, LPS 1 μg/ml, a/b isomers given as first/second symbol, read-out: IC50 (μM), inhibition of lipopolysaccharide-induced NO secretion in macrophages
Outline: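 LPS 1 μg/ml, 24 h, RAW264.7 (DMEM/10% FBS); cpds at varied concs. Supernatant NO by Griess, A548; % inhibition vs blank medium.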

Row | SMILES | IC50 [µM]
41 | O=C1c2c(nc3ccccc3c2OCc2c(Cl)cccc2Cl)-c2cccn21 [Compound 614b, 9-((2,6-dichlorobenzyl)oxy)-10H-pyrrolizino[1,2-b]quinolin-10-one] | 10 to 50
42 | O=C1c2c(nc3ccccc3c2OCc2cccc(F)c2)-c2cccn21 [Compound 595b, 9-((3-fluorobenzyl)oxy)-10H-pyrrolizino[1,2-b]quinolin-10-one] | 0.1 to 1
43 | COc1cccc2c(=O)c3c([nH]c12)-c1cccn1C3=O [Compound 446a, 5-Methoxy-9H-pyrrolizino[1,2-b]quinoline-9,10(4H)-dione] | 1 to 10
44 | O=C1c2c(nc3ccccc3c2OCc2ccccc2Cl)-c2cccn21 [Compound 600b, 9-((2-chlorobenzyl)oxy)-10H-pyrrolizino[1,2-b]quinolin-10-one] | 1 to 10
45 | O=C1c2c(nc3ccccc3c2OCc2c(F)c(F)c(F)c(F)c2F)-c2cccn21 [Compound 586b, 9-((perfluorophenyl)methoxy)-10H-pyrrolizino[1,2-b]quinolin-10-one] | 1 to 10
